Data on nine compounds can be found in patent EP0091328B1, “Trans-4-aminobenz(c,d)indol-5-ol derivatives, their salts, their preparation, their use as medicaments and compositions containing them” (priority 1982, dated 1983).

Where a name gives a salt, the structure may show the parent alone.

One series deals with souris. As to the kind of experiment: Acute toxicity, lethal dose DL0 after oral administration. It counts as in vivo. The conditions noted are these: mouse, maximal dose causing no mortality in 8 days. An excerpt: 4) Etude de la toxicité aiguë
On a évalué les doses létales DLo des différents composés testés après administration par voie orale chez la souris.
On appelle DLo la dose maximale ne provoquant aucune mortalité en 8 jours.

In series [1] the test system is rats mâles de souche WISTAR. As to the kind of experiment: Hypotensive activity in anaesthetised rats (carotid arterial pressure, intravenous administration). It is filed as in vivo. The conditions noted are these: anaesthetised Wistar rat, versus initial control pressure. On the procedure: 1) Détermination de l'activité hypotensive
L'activité hypotensive a été étudiée sur des rats mâles de souche WISTAR pesant 300 g environ et anesthésiés au nembutal (50 mg/kg par voie intraveineuse).
Le produit testé a été administré par voie intraveineuse dans la veine jugulaire.
La pression artérielle càrotidienne a été mesurée avant et après administration du produit testé.
Le tableau ci-après indique les variations exprimées en pourcentage de la pression artérielle après- administration du produit testé par rapport à la pression artérielle témoin initiale.

`CN[C@@H]1Cc2c[nH]c3cccc(c23)[C@H]1O` (racemic) [Exemple 7, Chlorhydratede trans 4RS 4-(méthylamino) 1,3,4,5-tétrahydro benz(c,d) indol-5-0l] registered a DL0 with souris above 400 mg/kg.

“trans 4RS 4-(isopropylamino) 1,,2a,3,4,5-hexahydrobenz(c,d) indol-5-ol [Exemple 5]” had a DL0 in the series on souris of 200 mg/kg.

In the case of `CN[C@@H]1CC2CNc3cccc(c32)[C@H]1O` (mixture of isomers) [Exemple 2, Fumarate neutrede trans 4RS 4-(méthylamino) 1,2,2a,3,4,5-hexahydro benz(c,d) indol-5-0l], the DL0 in the series with souris was above 800 mg/kg.

In the series with souris, `CC(C)N[C@@H]1Cc2c[nH]c3cccc(c23)[C@H]1O` (racemic) [Exemple 10, Chlorhydratede trans 4RS 4-(isopropylamino) 1,3,4,5-tétrahydro benz(c,d) indol-5-0l] gave a DL0 of 100 mg/kg. For the same compound, the “Variation % de la pression artérielle 30 minutes après l'administration” value in series [1] (dose 1 mg/kg) is -24%.

`CCN[C@@H]1Cc2c[nH]c3cccc(c23)[C@H]1O` (racemic) [Exemple 8, Chlorhydratede trans 4RS 4-(éthylamino) 1,3,4,5-tétrahydro benz(c,d) indol-5-0l]: the DL0 in the series with souris was found to be 80 mg/kg. Besides, the “Variation % de la pression artérielle 30 minutes après l'administration” value in series [1] (dose 0,1 mg/kg) was -13%.

In turn, `N[C@@H]1CC2CNc3cccc(c32)[C@H]1O` (mixture of isomers) [Exemple 1, dichlorhydratede trans 4RS 4-amino 1,2,2a.3,4,5-hexahydro benz(c,d) indol-5-0l] gave a DL0 with souris above 400 mg/kg.

Turning to `CCN[C@@H]1CC2CNc3cccc(c32)[C@H]1O` (mixture of isomers) [Exemple 3, Fumarate neutrede trans 4RS 4-(éthylamino) 1,2,2a,3,4,5-hexahydro benz(c,d) indol-5-ol], the DL0 in the series with souris is listed as above 400 mg/kg.

In the series on souris, `CCCN[C@@H]1Cc2c[nH]c3cccc(c23)[C@H]1O` (racemic) [Exemple 9, Chlorhydratede trans 4RS 4-(propylamino) 1,3,4,5-tétrahydro benz(c,d) indol-5-0l] displayed a DL0 of 60 mg/kg. For the same compound, in series [1] (dose 1 mg/kg), the “Variation % de la pression artérielle 30 minutes après l'administration” value is reported as -30%.

“trans 4RS 4-(propylamino) 1,2,2a,3,4,5-hexahydrobenz(c,d) indol-5--ol [Exemple 4]”: the DL0 in the series with souris came out at 200 mg/kg.
